Results taken from patent publication US6875761B2 (Eisai Co., Ltd., priority 1997, dated 2005).
Counter-ions that a name gives are not always drawn.

Tests used:
[1] = biological target: T1, serotonin 2 receptor (Rattus norvegicus, UniProt P14842); assay: Binding test on [3H] ketanserin, cerebral cortex receptor fraction; design: species or system SD rats; details: 0.3 nM [3H] ketanserin, 37° C. 15 min, read-out: 5HT2
T1 construct: To the receptor fraction of the cerebral cortex were added a test compound and 0.3 nM of [^3H] ketanserin; from tissue; host or cells: rat cerebral cortex membrane fraction
T1 sequence (P14842 whole entry): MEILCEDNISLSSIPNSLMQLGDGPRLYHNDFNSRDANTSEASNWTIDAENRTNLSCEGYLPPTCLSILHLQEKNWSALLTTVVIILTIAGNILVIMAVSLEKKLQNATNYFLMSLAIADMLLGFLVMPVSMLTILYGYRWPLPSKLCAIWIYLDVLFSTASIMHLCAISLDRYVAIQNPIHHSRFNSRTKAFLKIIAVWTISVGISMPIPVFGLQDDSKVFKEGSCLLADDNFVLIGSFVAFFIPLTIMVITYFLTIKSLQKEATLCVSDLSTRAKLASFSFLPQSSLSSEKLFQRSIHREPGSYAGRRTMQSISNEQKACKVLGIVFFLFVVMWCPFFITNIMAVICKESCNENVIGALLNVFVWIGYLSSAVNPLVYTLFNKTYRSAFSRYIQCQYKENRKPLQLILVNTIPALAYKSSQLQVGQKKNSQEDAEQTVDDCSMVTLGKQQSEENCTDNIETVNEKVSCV

[2] = biological target: T2, serotonin 1A receptor (Rattus norvegicus, UniProt P19327); assay: Binding test on [3H] 8-hydroxy-dipropylaminotetralin, hippocampus receptor fraction; design: species or system SD rats; details: rat hippocampus receptor fraction, 0.5 nM [3H] 8-OH-DPAT, room temperature 30 min; read-out: 5HT1
T2 construct: To the receptor fraction of the hippocampus were added a test compound and 0.5 nM of [^3H]; 8-hydroxy-dipropylaminotetralin; from tissue; host or cells: rat hippocampus membrane fraction
T2 sequence (P19327 1-422): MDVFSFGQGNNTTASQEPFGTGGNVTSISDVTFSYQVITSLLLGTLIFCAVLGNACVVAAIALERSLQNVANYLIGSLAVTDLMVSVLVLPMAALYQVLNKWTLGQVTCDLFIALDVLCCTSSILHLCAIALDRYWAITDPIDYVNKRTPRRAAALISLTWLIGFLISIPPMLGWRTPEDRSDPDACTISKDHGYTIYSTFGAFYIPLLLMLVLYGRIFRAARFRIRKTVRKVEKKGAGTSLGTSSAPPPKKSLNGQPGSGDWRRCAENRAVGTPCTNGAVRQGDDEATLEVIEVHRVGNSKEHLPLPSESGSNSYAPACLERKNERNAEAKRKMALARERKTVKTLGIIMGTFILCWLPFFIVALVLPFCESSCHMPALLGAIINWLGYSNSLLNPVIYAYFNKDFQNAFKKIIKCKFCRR
Description: (1) Binding test on serotonin 1A, serotonin 2 and α1 adrenalin receptors
The following reagents were employed in this test. • 1) Serotonin binoxalate (5-HT binoxalate, mfd. by Sigma Chemical Co.). • 2) Methysergide maleate (mfd. by RBI).
As radioisotope-labeled compounds, use was made of the following reagents (mfd. by NEN). • 3) [^3H] 8-Hydroxy-dipropylaminotetralin (8-OH-DPAT). • 4) [^3H]
Methysergide maleate was dissolved in distilled water before using.
Use was made of SD rats aged 6 to 8 weeks.
The rats were sacrificed by dcapitation to extirpate the cerebra. The hippocampus and cortex were separated therefrom and employed in the binding tests respectively on the serotonin 1A receptor and the serotonin 2 receptor.
The hippocampus was mixed with 50 times (on the wet weight basis) as much as 0.32 M sucrose solution while the cortex was mixed with 10 times as much the same solution. Each mixture was homogenized by using a Teflon glass homogenizer and centrifuged as 1,000× g for 10 min. The supernatant thus obtained was further centrifuged at 20,000× g for 20 min. The obtained precipitate was re-suspended in 50 times (based on the initial wet weight; in the case of the hippocampus) or 10 times (in the case of the cortex) as much a 50 Tris hydrochloride (pH 7.4) and incubated at room temperature for 30 min. After centrifuging at 20,000× g for 20 min, the obtained precipitate was further suspended and centrifuged twice each in the same manner. The precipitate thus obtained was suspended in 100 times (based on the initial wet weight; in the case of the hippocampus) or 20 times (in the case of the cortex) as much a 50 mM Tris hydrochloride solution (pH 7.4) to thereby give a receptor fraction. This receptor fraction was stored at −80° C. until using.
To the receptor fraction of the hippocampus were added a test compound and 0.5 nM of [^3H] 8-hydroxy-dipropylaminotetralin and the resultant mixture was incubated at room temperature for 30 min. Next, it was filtered through a glass filter with the use of a cell harvester. After washing the glass filter with 50 mM Tris hydrochloride (pH 7.4), the radioactivity of the receptor was measured with a liquid scintillation counter. The binding detected in the presence of 10 μM of serotonin binoxalate was referred to as the nonspecific binding.
IC50 was calculated by the probit method, while Ki was determined in accordance with the following formula: Ki=IC50(1+c/Kd) wherein c represents the concentration of the radioisotope-labeled compound, and Kd represents the dissociation constant of the radioisotope-labeled compound with respect to the receptor determined by Scatchard's analysis.

Compound | Ki [1] | Ki [2]
CCN1CCN(c2nc(NS(=O)(=O)c3ccccc3)cc3ccccc23)CC1 [Example 422, 3-benzenesulfoneamide-1-(4-ethylpiperazin-1-yl)isoquinoline] | 175 nM | 5.32 nM
CCN1CCN(c2nc(NS(=O)(=O)c3ccc(OC)cc3)cc3ccccc23)CC1 [Example 423, 1-(4-ethylpiperazin-1-yl)-3-(4-methoxybenzenesulfonamide)isoquinoline] | 332 nM | 9.81 nM
CCN1CCN(c2nc(COc3ccc(OC)cc3)cc3ccccc23)CC1 [Example 424, 1-(4-ethylpiperazin-1-yl)-3-(4-methoxyphenoxymethyl)isoquinoline Hydrochloride] | 1.93 nM | 61.6 nM
CCN1CCN(c2nc(-c3ccc(OCCO)cc3OC)cc3ccccc23)CC1 [Example 425, 1-(4-ethylpiperazin-1-yl)-3-[4-(2-hydroxyethoxy)-2-methoxyphenyl]isoquinoline] | 2.55 nM | 321 nM
CCN1CCN(c2nc(-c3ccc(OC4CCCCC4O)cc3)cc3ccccc23)CC1 (stereo not drawn) [Example 426, 1-(4-ethylpiperazin-1-yl)-3-[4-(2-hydroxycyclohexyloxy)phenyl]isoquinoline Hydrochloride] | 7.1 nM | 133 nM
CCN1CCN(c2nc(-c3ccc(OC)cc3)nc3ccccc23)CC1 [Example 427, 4-(4-ethylpiperazin-1-yl)-2-(4-methoxyphenyl)quinazoline Dihydrochloride] | 300 nM | 80.9 nM
CCN1CCN(c2nc(/C=C/c3cccc(OCCO)c3)cc3ccsc23)CC1 [Example 430, 7-(4-ethylpiperazin-1-yl)-5-[3-(2-hydroxyethoxy)styryl]thieno [2,3-c]pyridine hydrochloride] | 11.7 nM | 2.48 nM
CCN1CCN(c2nc(/C=C/c3ccc(OCCO)cc3)cc3ccsc23)CC1 [Example 431, 7-(4-ethylpiperazin-1-yl)-5-[4-(2-hydroxyethoxy)styryl]thieno[2,3-c]pyridine hydrochloride] | 2.11 nM | 1.98 nM
CCN1CCN(c2nc(-c3ccc(CCCO)cc3)cc3ccsc23)CC1 [Example 432, 7-(4-ethylpiperazin-1-yl)-5-[4-(3-hydroxypropyl)phenyl]thieno[2,3-c]pyridine hydrochloride] | 28.5 nM | 1.98 nM
CCN1CCN(c2nc(-c3ccc(CCCO)c(OC)c3)cc3ccsc23)CC1 [Example 433, 7-(4-ethylpiperazin-1-yl)-5-[4-(3-hydroxypropyl)-3-methoxyphenyl]thieno[2,3-c]-pyridine hydrochloride] | 3.53 nM | 20.6 nM
CCN1CCN(c2nc(-c3ccc(OCCCO)cc3)cc3ccsc23)CC1 [Example 434, 7-(4-ethylpiperazin-1-yl)-5-[4-(3-hydroxypropoxy)phenyl]thieno[2,3-c]pyridine dihydrochloride] | 60.5 nM | 64.9 nM
CCN1CCN(c2nc(-c3ccc(OC[C@@H](C)O)cc3)cc3ccsc23)CC1 [Example 435, 7-(4-ethylpiperazin-1-yl)-5-[4-(2-hydroxypropoxy)phenyl]thieno[2,3-c]pyridine dihydrochloride] | 1.14 nM | 61.2 nM
CCN1CCN(c2nc(-c3ccc(CC(C)O)cc3)cc3ccsc23)CC1 (stereo not drawn) [Example 436, 7-(4-ethylpiperazin-1-yl)-5-[4-(2-hydroxypropyl)phenyl]thieno[2,3-c]pyridine dihydrochloride] | 26 nM | 8.64 nM
CCN1CCN(c2nc(-c3ccc(OCCO)c(Cl)c3)cc3ccsc23)CC1 [Example 437, 7-(4-ethylpiperazin-1-yl)-5-[3-chloro-4-(2-hydroxyethoxy)phenyl]thieno[2,3-c]pyridine] | 18.1 nM | 30.5 nM
CCN1CCN(c2nc(-c3ccc(O[C@@H](C)CO)cc3)cc3ccsc23)CC1 [Example 438, 7-(4-ethylpiperazin-1-yl)-5-[4-(1-methyl-2-hydroxyethoxy)phenyl]thieno[2,3-c]pyridine dihydrochloride] | 18.8 nM | 62.9 nM
CCN1CCN(c2nc(-c3ccc(CCC(C)(C)O)cc3)cc3ccsc23)CC1 [Example 439, 7-(4-ethylpiperazin-1-yl)-5-[4-(3-hydroxy-3-methylbutyl)phenyl]thieno[2,3-c]pyridine dihydrochloride] | 6.03 nM | 44.2 nM
CCN1CCN(c2nc(-c3ccc(CCC(C)O)cc3)cc3ccsc23)CC1 (stereo not drawn) [Example 440, 7-(4-ethylpiperazin-1-yl)-5-[4-(3-hydroxybutyl)phenyl]thieno[2,3-c]pyridine dihydrochloride] | 0.72 nM | 21.8 nM

Compound | Ki [1] | Ki [2]
CCN1CCN(c2nc(-c3ccc(CC(C)CO)cc3)cc3ccsc23)CC1 (stereo not drawn) [Example 441, 7-(4-ethylpiperazin-1-yl)-5-[4-(3-hydroxy-2-methylpropyl)phenyl]thieno[2,3-c]pyridine dihydrochloride] | 0.41 nM | 15.2 nM
CCN1CCN(c2nc(-c3ccc(CC(C)(C)CO)cc3)cc3ccsc23)CC1 [Example 442, 7-(4-ethylpiperazin-1-yl)-5-[4-(3-hydroxy-2,2-dimethylpropyl)phenyl]thieno[2,3-c]pyridine dihydrochloride] | 2.66 nM | 23.2 nM
CCN1CCN(c2nc(-c3ccc(C(C)(C)CCO)cc3)cc3ccsc23)CC1 [Example 443, 7-(4-ethylpiperazin-1-yl)-5-[4-(3-hydroxy-1,1-dimethylpropyl)phenyl]thieno[2,3-c]pyridine dihydrochloride] | 1.85 nM | 10.2 nM
CCN1CCN(c2nc(-c3ccc(SC[C@@H](C)O)cc3)cc3ccsc23)CC1 [Example 444, 7-(4-ethylpiperazin-1-yl)-5-[4-(2-hydroxypropylthio)phenyl]thieno[2,3-c]pyridine dihydrochloride] | 12 nM | 43.2 nM
CCN1CCN(c2nc(-c3ccc(S(C)(=O)=O)cc3)cc3ccsc23)CC1 [Example 445, 7-(4-ethylpiperazin-1-yl)-5-(4-methanesulfonylphenyl)thieno)[2,3-c]pyridine dihydrochloride] | 90.4 nM | 5.46 nM
CCCC(O)c1ccc(-c2cc3ccsc3c(N3CCN(CC)CC3)n2)cc1 (stereo not drawn) [Example 446, 7-(4-ethylpiperazin-1-yl)-5-[4-(1-hydroxybutyl)phenyl]thieno[2,3-c]pyridine dihydrochloride] | 30 nM | 12.2 nM
CCNC(=O)c1ccc(-c2cc3ccsc3c(N3CCN(CC)CC3)n2)cc1 [Example 448, 7-(4-ethylpiperazin-1-yl)-5-[4-(N-ethylcarbamoyl)phenyl]thieno[2,3-c]pyridine dihydrochloride] | 346 nM | 22.6 nM
CCCNC(=O)c1ccc(-c2cc3ccsc3c(N3CCN(CC)CC3)n2)cc1 [Example 449, 7-(4-ethylpiperazin-1-yl)-5-[4-(N-propylcarbamoyl)phenyl]thieno[2,3-c]pyridine dihydrochloride] | 43.8 nM | 24 nM
CCN1CCN(c2nc(-c3ccc(S(=O)(=O)CC)cc3)cc3ccsc23)CC1 [Example 450, 7-(4-ethylpiperazin-1-yl)-5-(4-ethanesulfonylphenyl)thieno[2,3-c]pyridine dihydrochloride] | 15.2 nM | 6.89 nM
CCCS(=O)(=O)c1ccc(-c2cc3ccsc3c(N3CCN(CC)CC3)n2)cc1 [Example 451, 7-(4-ethylpiperazin-1-yl)-5-(4-propanesulfonylphenyl)thieno[2,3-c]pyridine dihydrochloride] | 37.9 nM | 7.72 nM
CCCCNC(=O)c1ccc(-c2cc3ccsc3c(N3CCN(CC)CC3)n2)cc1 [Example 452, 7-(4-ethylpiperazin-1-yl)-5-[4-(N-butylcarbamoyl)phenyl]thieno[2,3-c]pyridine dihydrochloride] | 7.04 nM | 19.6 nM
CCN1CCN(c2nc(-c3ccc(C(=O)NC4CCCC4)cc3)cc3ccsc23)CC1 [Example 453, 7-(4-ethylpiperazin-1-yl)-5-[4-(N-cyclopentylcarbamoyl)phenyl]thieno[2,3-c]pyridine dihydrochloride] | 45.4 nM | 22.2 nM
CCN1CCN(c2nc(-c3ccc4c(c3)CC(C)(CO)O4)cc3ccsc23)CC1 (stereo not drawn) [Example 456, dihydrochloride] | 16.2 nM | 63.3 nM
CCN1CCN(c2nc(-c3ccc(C(O)C4CCCCC4)cc3)cc3ccsc23)CC1 (stereo not drawn) [Example 457, 7-(4-Ethylpiperazin-1-yl)-5-[4-(cyclohexylhydroxymethyl)phenyl]thieno[2,3-c]pyridine dihydrochloride] | 281 nM | 63.3 nM
CCN1CCN(c2nc(-c3ccc(C(O)C4CCCC4)cc3)cc3ccsc23)CC1 (stereo not drawn) [Example 458, 7-(4-ethylpiperazin-1-yl)-5-[4-(cyclopentylhydroxymethyl)phenyl]thieno[2,3-c]pyridine dihydrochloride] | 93.1 nM | 75.4 nM
CCN1CCN(c2nc(-c3ccc(OC)cc3)cc3ccsc23)CC1 [Example 459, 7-(4-ethylpiperazin-1-yl)-5-(4-methoxyphenyl)thieno[2,3-c]pyridine dihydrochloride] | 60.1 nM | 108 nM
